According to BindingDB's records for patent US20240066136 (Cullgen (Shanghai), 2024):

What follows are compounds tested against DNA damage-binding protein 1 (Homo sapiens, UniProt Q16531) (assay: Surface Plasmon Resonance (SPR) Binding Assay).
Experimental: Surface plasmon resonance (SPR) binding assay. All SPR studies were performed on a Biacore X100 plus or T200 instrument (GE Healthcare). Immobilization of purified His-DDB1 was carried out at 25° C. using a CM5 sensor chip. The surface was pre-equilibrated in HBS-EP running buffer (10 mM HEPES, pH7.4, 150 mM NaCl, 3 mM EDTA, 0.05% P20), then activated with EDC/NHS. His-DDB1 proteins were immobilized by amine coupling to a density of 11,000-13,000 resonance units (RUs) on flow cell FC2, whereas flow cell FC1 was used as reference. Both DDB1 immobilized and reference surfaces were deactivated with 1M ethanolamine.

DNA damage-binding protein 1, sequence (Q16531 whole entry): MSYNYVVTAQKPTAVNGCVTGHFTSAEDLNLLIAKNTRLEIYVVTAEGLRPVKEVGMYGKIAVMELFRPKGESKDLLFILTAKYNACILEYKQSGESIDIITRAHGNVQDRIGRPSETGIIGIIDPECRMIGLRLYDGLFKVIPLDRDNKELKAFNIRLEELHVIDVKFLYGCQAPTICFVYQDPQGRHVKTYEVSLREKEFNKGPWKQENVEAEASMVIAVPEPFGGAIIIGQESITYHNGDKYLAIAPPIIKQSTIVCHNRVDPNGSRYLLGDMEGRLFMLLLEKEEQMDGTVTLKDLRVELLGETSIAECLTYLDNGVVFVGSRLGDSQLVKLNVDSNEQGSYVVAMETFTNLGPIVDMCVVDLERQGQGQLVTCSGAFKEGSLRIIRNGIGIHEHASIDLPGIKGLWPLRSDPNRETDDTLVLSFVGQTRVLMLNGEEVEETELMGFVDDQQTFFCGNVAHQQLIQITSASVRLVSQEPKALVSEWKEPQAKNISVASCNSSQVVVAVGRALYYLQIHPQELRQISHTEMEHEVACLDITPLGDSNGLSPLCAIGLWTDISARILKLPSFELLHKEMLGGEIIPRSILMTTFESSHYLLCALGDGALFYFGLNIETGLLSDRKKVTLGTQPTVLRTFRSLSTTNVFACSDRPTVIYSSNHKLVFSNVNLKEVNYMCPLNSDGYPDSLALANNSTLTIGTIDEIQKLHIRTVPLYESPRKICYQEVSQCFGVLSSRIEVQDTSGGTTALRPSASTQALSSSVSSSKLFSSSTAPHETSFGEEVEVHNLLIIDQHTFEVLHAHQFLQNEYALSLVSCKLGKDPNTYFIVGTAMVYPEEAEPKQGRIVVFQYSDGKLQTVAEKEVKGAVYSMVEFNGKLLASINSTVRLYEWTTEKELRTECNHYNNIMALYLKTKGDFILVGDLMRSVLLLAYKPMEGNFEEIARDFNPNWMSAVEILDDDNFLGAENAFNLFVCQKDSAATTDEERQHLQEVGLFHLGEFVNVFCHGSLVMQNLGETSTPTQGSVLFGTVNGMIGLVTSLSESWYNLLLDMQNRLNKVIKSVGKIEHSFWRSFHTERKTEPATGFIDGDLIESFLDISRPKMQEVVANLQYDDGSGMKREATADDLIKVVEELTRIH

Compound | Kd
H-ILPKVLHKRTFGL-OH [US20240066136,Peptide 4] | < 20 µM
CCCC(=O)Nc1ccc(C(=O)Nc2ncc([N+](=O)[O-])s2)c(NC(C)=O)c1 [US20240066136,Compound B-146] | 20 to 100 µM
CC[C@H](C)[C@H](N)C(=O)N[C@@H](CC(C)C)C(=O)N1CCC[C@H]1C(=O)N[C@@H](CCCCN)C(=O)N[C@H](C(=O)N[C@@H](CC(C)C)C(=O)N[C@@H](Cc1cnc[nH]1)C(=O)N[C@@H](CCCCN)C(=O)N[C@@H](CCCNC(=N)N)C(=O)N[C@H](C(=O)N[C@@H](CC(C)C)C(=O)NCC(=O)N[C@@H](CC(C)C)C(=O)N[C@@H](CO)C(=O)O)[C@@H](C)O)C(C)C [US20240066136,Peptide 1] | < 20 µM
NCCOCCCOCCOCCC(=O)Nc1ccccc1C(=O)Nc1ncc([N+](=O)[O-])s1 [US20240066136,Compound BL-3] | in the range around 60 µM
CCCC(=O)Nc1ccc(C(=O)Nc2ncc([N+](=O)[O-])s2)c(OC(=O)CCC)c1 [US20240066136,Compound B-24] | in the range around 60 µM
H-KVLHKRTLG-OH [US20240066136,Peptide 5] | < 20 µM
Cc1nc(NC(=O)c2ccccc2NC(=O)CCOCCOCCCOCCN)sc1[N+](=O)[O-] [US20240066136,Compound BL-2] | in the range around 60 µM
CC[C@H](C)[C@H](N)C(=O)N[C@@H](CC(C)C)C(=O)N1CCC[C@H]1C(=O)N[C@@H](CCCCN)C(=O)N[C@H](C(=O)N[C@@H](CC(C)C)C(=O)N[C@@H](Cc1cnc[nH]1)C(=O)N[C@@H](CCCCN)C(=O)N[C@@H](CCCNC(=N)N)C(=O)N[C@H](C(=O)N[C@@H](CC(C)C)C(=O)NCC(=O)N[C@@H](CC(C)C)C(=O)O)[C@@H](C)O)C(C)C [US20240066136,Peptide 3] | < 20 µM
CC(=O)Nc1cc(C(=O)NCCCCCCN)ccc1C(=O)Nc1nc(C)c([N+](=O)[O-])s1 [US20240066136,Compound BL-4] | > 0.1 µM
H-ILPKVWHKRELGLS-OH [US20240066136,Peptide 2] | < 20 µM
H-NFTSRLNRRASFP-OH [US20240066136,Peptide 6] | < 20 µM
